According to patent EP1003508B1, “ANTIMUTAGENIC AGENTS” (The GRASSETTI Family Trust, priority 1997, dated 1999):
Like-named read-outs stand apart in the source and are kept apart here.

Legend:
metastases = conditions: mice; Grassetti 1970, Nature 228:282; cited from earlier work
[1] = Observed toxicity / tolerability; conditions: can be taken in doses of at least approximately 0.1 gram per day for indefinite periods
Source text: It can be taken in doses of at least approximately 0.1 gram per day for indefinite periods. This fills the requirements for a non-toxic, low-cost chemopreventive agent, which could be administered orally.

[2] = system: Salmonella Typhimurium bacteria T-100; test: microbe, parasite or virus in culture; assay type: cell-based; conditions: for Number of Colonies Per Plate With Inhibitor: inhibitor 0.3 mg/plate added one hour before carcinogen, average of 3; for inhibition at 0.3 mg/plate: Salmonella enterica, TYPHIMURIUM
[3] = biological target: T1, poly(ADP-ribose) polymerase (ADPRP) (Sus scrofa, UniProt I3LDH3); test: Inhibition of ADPRP enzyme activity; assay type: biochemical, pig
T1 construct: ADPRP was prepared from pig thymus using the method of Khan and Shall; from tissue; host or cells: pig thymus
T1 sequence (I3LDH3 1-1017): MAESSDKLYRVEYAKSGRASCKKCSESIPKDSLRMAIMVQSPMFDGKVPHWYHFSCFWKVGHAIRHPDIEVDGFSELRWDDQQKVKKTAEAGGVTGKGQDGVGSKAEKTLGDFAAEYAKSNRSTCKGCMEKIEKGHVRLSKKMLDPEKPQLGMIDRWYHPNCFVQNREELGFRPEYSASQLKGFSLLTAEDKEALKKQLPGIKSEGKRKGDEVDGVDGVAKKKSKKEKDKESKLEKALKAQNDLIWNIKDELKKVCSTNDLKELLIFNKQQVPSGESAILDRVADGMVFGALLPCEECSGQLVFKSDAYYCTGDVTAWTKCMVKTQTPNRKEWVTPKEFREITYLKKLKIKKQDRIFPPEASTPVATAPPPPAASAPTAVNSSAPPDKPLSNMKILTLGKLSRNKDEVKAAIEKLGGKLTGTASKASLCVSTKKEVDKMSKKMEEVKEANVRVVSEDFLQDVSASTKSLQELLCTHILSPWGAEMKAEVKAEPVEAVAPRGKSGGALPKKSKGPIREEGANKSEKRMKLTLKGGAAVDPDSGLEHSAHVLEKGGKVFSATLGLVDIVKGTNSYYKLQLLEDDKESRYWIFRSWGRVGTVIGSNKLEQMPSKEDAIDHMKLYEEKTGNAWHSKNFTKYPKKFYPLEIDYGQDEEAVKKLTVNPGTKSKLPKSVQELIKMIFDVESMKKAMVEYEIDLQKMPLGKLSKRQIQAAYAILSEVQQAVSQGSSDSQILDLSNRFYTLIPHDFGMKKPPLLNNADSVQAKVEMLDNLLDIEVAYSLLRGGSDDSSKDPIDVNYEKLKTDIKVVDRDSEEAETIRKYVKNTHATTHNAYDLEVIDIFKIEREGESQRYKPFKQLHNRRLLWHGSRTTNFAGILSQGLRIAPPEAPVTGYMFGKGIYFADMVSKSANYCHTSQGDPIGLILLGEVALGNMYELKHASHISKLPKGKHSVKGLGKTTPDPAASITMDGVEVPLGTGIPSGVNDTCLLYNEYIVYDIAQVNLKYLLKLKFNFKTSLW
Protocol: ADPRP was prepared from pig thymus using the method of Khan and Shall (Biochem. Soc. Transactions 4:778 (1976)) with various modifications. Enzyme activity was approximately linear up to 15-20 minutes with NAD substrate concentration of 25 µM. Typical maximum enzyme activity was around 0.003 nmol product formed/minute in the assay (i.e. approximately 0.1% of substrate utilized). KM was approximately 25 µM.
Using a standard assay mix containing 2mM dithiothreitol (DTT) and […] crude enzyme/ml incubation, three experiments were performed with 6,6'-dithiodinicotinic acid added at concentrations varying from 5 µg/ml to 600 µg/ml (i.e. 1/60th molar equivalent of DTT to 2 molar equivalents). […] INHIBITION % OF CONTROLS
These are values for individual incubations which were stopped at either 7.5, 15, or 20 minutes.

[4] = 2mM DTT, individual incubation, read-out: Percent Inhibition at: 7.5 min.
[5] = 2mM DTT, individual incubation, read-out: Percent Inhibition at: 15 min.

O=C(O)c1ccc(SSc2ccc(C(=O)O)cn2)nc1 [6,6'-dithiodinicotinic acid]
prevention of metastases (metastases): known to prevent metastases in mice | toxicity [1]: not a toxic compound | Number of Colonies Per Plate With Inhibitor ([2]; 2-Aflatoxin 0 (control) µg/plate): 104 | Number of Colonies Per Plate With Inhibitor ([2]; 2-Aflatoxin 20 µg/plate): 188 | Number of Colonies Per Plate With Inhibitor ([2]; 2-Aflatoxin 50 µg/plate): 358 | Number of Colonies Per Plate With Inhibitor ([2]; 2-Aflatoxin 100 µg/plate): 471 | Number of Colonies Per Plate With Inhibitor ([2]; 2-Aminofluorene 0 (control) µg/plate): 141 | Number of Colonies Per Plate With Inhibitor ([2]; 2-Aminofluorene 5.0 µg/plate): 705 | Number of Colonies Per Plate With Inhibitor ([2]; 2-Aminofluorene 15.0 µg/plate): 655 | Number of Colonies Per Plate With Inhibitor ([2]; 2-Aminofluorene 25.0 µg/plate): 791 | Number of Colonies Per Plate With Inhibitor ([2]; Benzo-[a]-pyrene 0 (control) µg/plate): 111 | Number of Colonies Per Plate With Inhibitor ([2]; Benzo-[a]-pyrene 2.5 µg/plate): 339 | Number of Colonies Per Plate With Inhibitor ([2]; Benzo-[a]-pyrene 5.0 µg/plate): 446 | Number of Colonies Per Plate With Inhibitor ([2]; Benzo-[a]-pyrene 10.0 µg/plate): 488 | inhibition at 0.3 mg/plate ([2]; 2-Aminofluorene 5.0 µg/plate, inhibitor 0.3 mg/plate, read-out: Decrease (%)): 10% | inhibition at 0.3 mg/plate ([2]; Benzo-[a]-pyrene 2.5 µg/plate, inhibitor 0.3 mg/plate, read-out: Decrease (%)): 74% | inhibition at 0.3 mg/plate ([2]; Benzo-[a]-pyrene 5.0 µg/plate, inhibitor 0.3 mg/plate, read-out: Decrease (%)): 62% | inhibition at 0.3 mg/plate ([2]; Benzo-[a]-pyrene 10.0 µg/plate, inhibitor 0.3 mg/plate, read-out: Decrease (%)): 58% | inhibition at 0.3 mg/plate ([2]; read-out: Decrease (%), 2-Aflatoxin 0 (control) µg/plate, inhibitor 0.3 mg/plate): 0% | inhibition at 0.3 mg/plate ([2]; read-out: Decrease (%), 2-Aflatoxin 20 µg/plate, inhibitor 0.3 mg/plate): 63% | inhibition at 0.3 mg/plate ([2]; read-out: Decrease (%), 2-Aflatoxin 50 µg/plate, inhibitor 0.3 mg/plate): 68% | inhibition at 0.3 mg/plate ([2]; read-out: Decrease (%), 2-Aflatoxin 100 µg/plate, inhibitor 0.3 mg/plate): 72% | inhibition at 0.3 mg/plate ([2]; read-out: Decrease (%), 2-Aminofluorene 0 (control) µg/plate, inhibitor 0.3 mg/plate): 0% | inhibition at 0.3 mg/plate ([2]; read-out: Decrease (%), 2-Aminofluorene 15.0 µg/plate, inhibitor 0.3 mg/plate): 72% | inhibition at 0.3 mg/plate ([2]; read-out: Decrease (%), 2-Aminofluorene 25.0 µg/plate, inhibitor 0.3 mg/plate): 63% | inhibition at 0.3 mg/plate ([2]; read-out: Decrease (%), Benzo-[a]-pyrene 0 (control) µg/plate, inhibitor 0.3 mg/plate): 0% | inhibition at 0.3 mg/plate ([2]; read-out: number of mutants decreased, present in the culture prior to addition of carcinogen (benzo-[a]-pyrene, 2-aflatoxin, or 2-aminofluorene)): ~70% | mutagenic effect of carcinogenic chemicals ([2]; benzo-[a]-pyrene, 2-aflatoxin, and 2-aminofluorene): greatly diminished | inhibition at 5 µg/mL [3, 4]: 0% | inhibition at 5 µg/mL [3, 5]: 14% | inhibition at 25 µg/mL [3, 4]: 0% | inhibition at 25 µg/mL [3, 5]: 0% | inhibition at 50 µg/mL [3, 4]: 37% | inhibition at 50 µg/mL [3, 5]: 38% | inhibition at 100 µg/mL [3, 4]: 68% | inhibition at 100 µg/mL [3, 5]: 54% | inhibition at 150 µg/mL ([3]; 150 µg/ml, 2mM DTT, individual incubation, read-out: Percent Inhibition at: 7.5 min.): 88% | inhibition at 150 µg/mL ([3]; 150 µg/ml, 2mM DTT, individual incubation, read-out: Percent Inhibition at: 15 min.): 70% | inhibition at 150 µg/mL ([3]; 150 µg/ml, 2mM DTT, individual incubation, read-out: Percent Inhibition at: 20 min.): 90% | extent of conversion of substrate to bound product after addition of excess DTT ([3]; 150 µg/ml, excess DTT added to incubation): did not increase | inhibition at 300 µg/mL ([3]; 300 µg/ml, 2mM DTT, individual incubation, read-out: Percent Inhibition at: 20 min.): 93% | inhibition at 600 µg/mL ([3]; 600 µg/ml, 2mM DTT, individual incubation, read-out: Percent Inhibition at: 20 min.): 83% | inhibition of ADPRP ([3]; at 50 µg/ml, 2mM DTT): Significant and specific inhibition | inhibition of ADPRP ([3]; at 150 µg/ml and above (0.5 molar equivalents of DTT and above)): almost complete inhibition | inhibition of ADPRP ([3]; at 5 and 25 µg/ml): No inhibition
